Test results as given in patent US20080234262A1 (Wyeth, priority 2007, published 2008).

Key:
prostate line LNCap = assay: In vitro cell culture growth assay (MTS), LNCap; format: cell-based, human; conditions: Homo sapiens, LNCaP, 72 h, LNCap cells, three days after drug treatment;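 note: viable cell density read by absorbance at 490 nm, growth expressed as percent of vehicle-treated cells on the same plate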
breast line MDA468 = assay: In vitro cell culture growth assay (MTS), MDA468; format: cell-based, human; conditions: Homo sapiens, 72 h, MDA468 cells, three days after drug treatment
Outline: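 Steps: plate cells; add inhibitors the next day; incubate 3 days; add MTS dye, which viable cells convert metabolically; measure absorbance at 490 nm; calculate percent of control growth relative to vehicle-treated cells in the same plate.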

PI3K = PI3K (Homo sapiens, UniProt P42336); assay: Fluorescence polarization assay for PI3K; format: biochemical; conditions: PI3Kα; read-out: PI3Kα IC50;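 note: PI3K kinase reaction on PIP2 with ATP, 30-60 min, product sensed by GST-GRP with red probe in fluorescence polarization (mP), controls without enzyme and at zero time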
PI3K, sequence (P42336 whole entry): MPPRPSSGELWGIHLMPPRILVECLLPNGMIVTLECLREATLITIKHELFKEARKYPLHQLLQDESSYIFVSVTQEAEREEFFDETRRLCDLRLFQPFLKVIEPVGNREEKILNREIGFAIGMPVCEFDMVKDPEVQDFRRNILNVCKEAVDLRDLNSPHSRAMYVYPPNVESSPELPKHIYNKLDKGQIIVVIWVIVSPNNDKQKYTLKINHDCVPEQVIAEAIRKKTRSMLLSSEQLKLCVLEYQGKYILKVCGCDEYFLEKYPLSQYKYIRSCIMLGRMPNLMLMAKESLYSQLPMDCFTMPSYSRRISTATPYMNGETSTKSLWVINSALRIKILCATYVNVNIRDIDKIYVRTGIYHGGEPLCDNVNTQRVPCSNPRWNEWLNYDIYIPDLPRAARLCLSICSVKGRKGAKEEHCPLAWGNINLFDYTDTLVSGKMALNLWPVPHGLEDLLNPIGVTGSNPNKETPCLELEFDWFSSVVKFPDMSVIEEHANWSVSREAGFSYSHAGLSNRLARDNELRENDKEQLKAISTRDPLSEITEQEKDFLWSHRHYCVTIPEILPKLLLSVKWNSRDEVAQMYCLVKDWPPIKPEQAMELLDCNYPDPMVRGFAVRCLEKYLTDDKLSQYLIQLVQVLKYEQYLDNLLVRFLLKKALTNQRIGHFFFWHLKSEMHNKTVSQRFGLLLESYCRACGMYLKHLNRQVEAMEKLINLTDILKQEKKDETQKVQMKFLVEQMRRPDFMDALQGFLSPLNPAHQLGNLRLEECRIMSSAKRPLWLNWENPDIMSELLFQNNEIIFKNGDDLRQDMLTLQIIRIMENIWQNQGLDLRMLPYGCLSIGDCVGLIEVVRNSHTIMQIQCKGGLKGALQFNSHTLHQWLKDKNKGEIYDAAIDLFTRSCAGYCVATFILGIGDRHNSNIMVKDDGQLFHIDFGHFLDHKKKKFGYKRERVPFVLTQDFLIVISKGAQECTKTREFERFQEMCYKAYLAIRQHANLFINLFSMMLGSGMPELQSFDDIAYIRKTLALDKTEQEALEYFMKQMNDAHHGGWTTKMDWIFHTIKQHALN
PI3K, sequence (P27986 whole entry partner): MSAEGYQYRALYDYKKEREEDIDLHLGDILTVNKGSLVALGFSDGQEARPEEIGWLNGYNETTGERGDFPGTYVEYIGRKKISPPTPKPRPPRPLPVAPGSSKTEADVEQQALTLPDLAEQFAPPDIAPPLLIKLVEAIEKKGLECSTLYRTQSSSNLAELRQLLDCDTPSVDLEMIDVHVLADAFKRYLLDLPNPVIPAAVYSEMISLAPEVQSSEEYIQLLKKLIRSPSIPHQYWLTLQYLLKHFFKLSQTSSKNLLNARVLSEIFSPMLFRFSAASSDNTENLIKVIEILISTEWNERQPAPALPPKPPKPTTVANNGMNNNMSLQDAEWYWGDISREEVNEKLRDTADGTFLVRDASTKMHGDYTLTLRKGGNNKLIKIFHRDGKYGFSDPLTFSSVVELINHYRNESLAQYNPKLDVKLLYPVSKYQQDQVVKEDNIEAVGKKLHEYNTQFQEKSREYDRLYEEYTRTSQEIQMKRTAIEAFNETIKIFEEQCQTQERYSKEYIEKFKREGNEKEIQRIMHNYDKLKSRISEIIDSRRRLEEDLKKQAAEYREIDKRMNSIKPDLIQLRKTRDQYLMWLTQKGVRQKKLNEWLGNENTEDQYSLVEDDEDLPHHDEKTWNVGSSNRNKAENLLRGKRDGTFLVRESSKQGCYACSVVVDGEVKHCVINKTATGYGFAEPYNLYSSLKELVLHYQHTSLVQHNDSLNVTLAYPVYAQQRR

SMILES | IC50 (prostate line LNCap) [µM] | IC50 (breast line MDA468) [µM] | IC50 (PI3K) [µM]
CNC(=O)Nc1ccc(-c2nc(N3CCOCC3)c3cnn(C4CCN(C(=O)OCC(C)(C)C)CC4)c3n2)cc1 [Compound 876, 2,2-dimethylpropyl 4-(6-{4-[(methylcarbamoyl)amino]phenyl}-4-morpholin-4-yl-1H-pyrazolo[3,4-d]pyrimidin-1-yl)piperidine-1-carboxylate] | 0.11 | 0.35 | 0.087
CC(C)(C)OC(=O)N1CCC(n2ncc3c(N4CCOCC4)nc(-c4ccc(NC(=O)Nc5ccc(CCO)cc5)cc4)nc32)CC1 [Compound 954, tert-butyl 4-{6-[4-({[4-(2-hydroxyethyl)phenyl]carbamoyl}amino)phenyl]-4-morpholin-4-yl-1H-pyrazolo[3,4-d]pyrimidin-1-yl}piperidine-1-carboxylate] | 0.009 | 0.1 | 0.01
COC(=O)N1CCC(n2ncc3c(N4CCOCC4)nc(-c4ccc(NC(=O)Nc5cccnc5F)cc4)nc32)CC1 [Compound 863, methyl 4-[6-(4-{[(2-fluoropyridin-3-yl)carbamoyl]amino}phenyl)-4-morpholin-4-yl-1H-pyrazolo[3,4-d]pyrimidin-1-yl]piperidine-1-carboxylate] | 0.17 | 0.68 | 0.266
c1ccc(CN2CCC(n3ncc4c(N5CCOCC5)nc(-c5ccc6[nH]ccc6c5)nc43)CC2)nc1 [Compound 178] | 0.55 | 2.1 | 0.509
CC(=O)Nc1ccc(-c2nc(N3CCOCC3)c3cnn(CCN4CCCCC4)c3n2)cc1 [Compound 127] | 5 | 18 | 6.52
c1ccc(-n2ncc3c(N4CCOCC4)nc(-c4ccc5sccc5c4)nc32)cc1 [Compound 105] | 60 | 60 | 3.08
CNC(=O)Nc1ccc(-c2nc(N3CCOCC3)c3cnn(C4CCN(C(=O)c5cccc(C(F)(F)F)c5)CC4)c3n2)cc1 [Example 359, 1-methyl-3-[4-(4-morpholin-4-yl-1-{1-[3-(trifluoromethyl)benzoyl]piperidin-4-yl}-1H-pyrazolo[3,4-d]pyrimidin-6-yl)phenyl]urea] | 0.045 | 0.2 | 0.076
O=C(Nc1ccc(-c2nc(N3CCOCC3)c3cnn(C4CCN(Cc5cccnc5)CC4)c3n2)cc1)NC1CC1 [Example 405, 1-cyclopropyl-3-(4-{4-morpholin-4-yl-1-[1-(pyridin-3-ylmethyl)piperidin-4-yl]-1H-pyrazolo[3,4-d]pyrimidin-6-yl}phenyl)urea] | 0.027 | 0.1 | 0.438
CN(C)C1CCC(n2ncc3c(N4CCOCC4)nc(-c4ccc5[nH]ccc5c4)nc32)CC1 (stereo not drawn) [Compound 150] | 0.3 | 2.1 | 1.95
CN(C)c1ccc(CC(=O)Nc2ccc(-c3nc(N4CCOCC4)c4cnn(C5CCCCO5)c4n3)cc2)cc1 (stereo not drawn) [Compound 522, 2-[4-(dimethylamino)phenyl]-N-{4-[4-morpholin-4-yl-1-(tetrahydro-2H-pyran-2-yl)-1H-pyrazolo[3,4-d]pyrimidin-6-yl]phenyl}acetamide] | 11 | > 60 | 6.47
CN1CCC(C(=O)Nc2ccc(-c3nc(N4CCOCC4)c4cn[nH]c4n3)cc2)CC1 [Compound 530, 1-methyl-N-[4-(4-morpholin-4-yl-1H-pyrazolo[3,4-d]pyrimidin-6-yl)phenyl]piperidine-4-carboxamide] | 5.3 | 22 | 0.885
O=C(c1ccc(Cl)nc1)N1CCC(n2ncc3c(N4CCOCC4)nc(-c4cccc(O)c4)nc32)CC1 [Example 23] | 0.15 | 0.8 | 0.063
COC(=O)N1CCC(n2ncc3c(N4CCOCC4)nc(-c4ccc(NC(=O)Nc5ccc(N6CCOCC6)nc5)cc4)nc32)CC1 [Compound 911, methyl 4-[4-morpholin-4-yl-6-(4-{[(6-morpholin-4-ylpyridin-3-yl)carbamoyl]amino}phenyl)-1H-pyrazolo[3,4-d]pyrimidin-1-yl]piperidine-1-carboxylate] | 0.0008 | 0.01 | 0.118
CC(C)(C)OC(=O)N1CCC(n2ncc3c(N4CCOCC4)nc(-c4ccc(NC(=O)Nc5ccccn5)cc4)nc32)CC1 [Compound 769, tert-butyl 4-(4-morpholin-4-yl-6-{4-[(pyridin-2-ylcarbamoyl)amino]phenyl}-1H-pyrazolo[3,4-d]pyrimidin-1-yl)piperidine-1-carboxylate] | 3.5 | 7 | 2.19
